# Legend:
# NTR1 = target: T1, NTR1 (Homo sapiens, UniProt P30989); assay: ^125I-NT binding to PC3 cells; settings: for NT Binding Assay: ability to enhance NT binding in PC3 cells; for Effect on NT binding in PC3 cells: n=3; for NT binding increased as much as / up to (fold): maximal enhancement of NT binding to PC3 cells
# T1 construct: endogenous in cells; host or cells: PC3 cells (ATCC)
# [1] = design: key: +: All of the compounds listed in Table 12 were anticancerous; settings: from anticancer literature; cited from earlier work
# [2] = tested on: NT-induced inositol phosphate (IP) formation in PC3 cells; assay: NT-induced IP formation in PC3 cells; assay type: cell-based; settings: Homo sapiens, PC-3
# 5-LOX = settings: range of reported values, various blood cell systems; cited from earlier work
# [3] = [agent] that decreased IP formation by 40%
# [4] = [agent] giving 75% increase in NT binding
# [5] = [agent] giving 100% increase in NT binding
# [6] = [agent] giving 50% decrease in IP formation
# T1 sequence (P30989 whole entry): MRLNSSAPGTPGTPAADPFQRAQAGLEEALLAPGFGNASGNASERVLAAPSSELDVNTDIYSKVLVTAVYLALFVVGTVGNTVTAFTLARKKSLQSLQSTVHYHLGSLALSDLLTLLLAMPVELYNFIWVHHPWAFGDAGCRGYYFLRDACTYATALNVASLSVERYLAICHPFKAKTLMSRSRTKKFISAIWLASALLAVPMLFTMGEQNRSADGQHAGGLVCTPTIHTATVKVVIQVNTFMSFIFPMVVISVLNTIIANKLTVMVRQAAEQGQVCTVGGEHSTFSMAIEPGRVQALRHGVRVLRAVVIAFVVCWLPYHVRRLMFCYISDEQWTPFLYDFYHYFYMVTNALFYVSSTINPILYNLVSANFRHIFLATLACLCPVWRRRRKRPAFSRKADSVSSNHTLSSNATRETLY
structure (smiles),measurement,setting,value
"O[C@H](CS)[C@H](O)CS (racemic) [DTT, dithiothreitol]",Effect on NT binding,NTR1; general reducing agents and antioxidants,not much affected
O=CC[C@@H](O)[C@H](O)[C@H](O)CO [2-deoxyglucose],Anti-cancer,[1],+
same,NT Binding Assay,NTR1,+
Oc1cc(O)c2c(c1)O[C@H](c1ccc(O)c(O)c1)[C@@H](O)C2 [(+)-catechin],Effect on NT binding in PC3 cells,NTR1; used at 10-100 μM,without effect
CC1=C(C)C(=O)C(CCCCC#CCCCC#CCO)=C(C)C1=O [AA861],IC50,[2]; [3],7 µM
same,NT Binding Efficacy % increase,NTR1; LOX blockers,155 % increase
COc1cc2ncnc(Nc3cccc(Cl)c3)c2cc1OC [AG1478],Anti-cancer,[1],+
same,NT Binding Assay,NTR1,+
O=c1cc(-c2ccc(O)cc2)oc2cc(O)cc(O)c12 [Apigenin],Anti-cancer,[1],+
same,NT Binding Assay,NTR1,+
"CC(=O)OCOC(=O)CN(CC(=O)OCOC(C)=O)c1ccccc1OCCOc1ccccc1N(CC(=O)OCOC(C)=O)CC(=O)OCOC(C)=O [BAPTA-AM, 1,2-bis(o-aminophenoxy)ethane-N,N,N′,N′-tetraacetic acid tetra(acetoxymethyl) ester]",Effect on NT binding,NTR1; 50 μM BAPTA-AM,nor was NT binding altered
"COc1ccc(O)c(C(C)(C)C)c1 [BHA, butylated hydroxy anisole]",EC50,NTR1; [4],110 µM
"O=c1cc(-c2ccccc2)oc2cc(O)c(O)c(O)c12 [Baicalein, baicalein]",IC50,[2]; [3],> 100 µM
same,Anti-cancer,[1],+
COC(=O)C1=C(C)NC(C)=C([N+](=O)[O-])C1c1ccccc1C(F)(F)F (centres unmarked) [BayK-8644],EC50,NTR1; [4],16 µM
"O=C(/C=C/c1ccc(O)c(O)c1)OCCc1ccccc1 [CAPE, caffeic acid phenethyl ester]",IC50,[2]; [3],18 µM
same,NT Binding Efficacy % increase,NTR1; LOX blockers,220 % increase
same,NT binding increased as much as / up to (fold),NTR1,≤ 2.8 fold
CCNC(=O)[C@H]1O[C@@H](n2cnc3c(N)nc(NCCc4ccc(CCC(=O)O)cc4)nc32)[C@H](O)[C@@H]1O [CGS21683],EC50,NTR1; [5],22 µM
same,IC50,5-LOX,0.01 to 1 µM
"COc1ccc([C@@H]2Sc3ccccc3N(CCN(C)C)C(=O)[C@@H]2OC(C)=O)cc1 [Diltiazem, diltiazem]",NT Binding Efficacy % increase,NTR1; maximal % increase in NT binding observed for each agent,38 % increase
same,NT binding increased as much as / up to (fold),NTR1,≤ 1.4 fold
c1ccc2c(c1)[I+]c1ccccc1-2 [Diphenylene iodonium],IC50,[2]; [6],35 µM
same,Anti-cancer,[1],+
same,NT Binding Assay,NTR1,+
"O=C(O)CN(CCOCCOCCN(CC(=O)O)CC(=O)O)CC(=O)O [EGTA, ethylene glycol tetra-acetic acid]",Increase in NT binding,NTR1,38±6 % increase
"CCCCCC#CCC#CCC#CCC#CCCCC(=O)O [ETYA, 5,8,11,14-eicosatetraynoic acid]",IC50,[2]; [3],32 µM
same,NT Binding Efficacy % increase,NTR1; LOX blockers,100 % increase
same,EC50,NTR1; [5],50 µM
same,IC50,5-LOX,6 to 50 µM
COC(=O)c1c(C)[nH]c(C)c1C(=O)c1ccccc1Cc1ccccc1 [FPL-64176],EC50,NTR1; [4],29 µM
COc1ccc2c(c1)c(C1=C(c3c[nH]c4ccccc34)C(=O)NC1=O)cn2CCCN(C)C [Go-6983],Anti-cancer,[1],+
same,NT Binding Assay,NTR1,+
"Cc1cc2c(C(C)C)c(O)c(O)c(C=O)c2c(O)c1-c1c(C)cc2c(C(C)C)c(O)c(O)c(C=O)c2c1O [Gossypol, gossypol]",IC50,[2]; [3],20 µM
CCCc1c(OCCCCc2nnn[nH]2)ccc(C(C)=O)c1O [LY171883],NT Binding Efficacy % increase,NTR1; LOX blockers,157 % increase
same,EC50,NTR1; [5],34 µM
CC(=O)N[C@@H](CS)C(=O)O [N-acetyl cysteine],Effect on NT binding in PC3 cells,NTR1; used at 1-3 mM,without effect
"CC(Cc1ccc(O)c(O)c1)C(C)Cc1ccc(O)c(O)c1 (centres unmarked) [NDGA, Nordihydroguaiaretic acid]",IC50,[2]; [3],7 µM
same,Anti-cancer,[1],+
same,NT Binding Efficacy % increase,NTR1; LOX blockers,230 % increase
same,EC50,NTR1; [5],16 µM
same,NT Binding Assay,NTR1,+
same,IC50,5-LOX,0.3 to 2 µM
"COCCOC(=O)C1=C(C)NC(C)=C(C(=O)OC(C)C)C1c1cccc([N+](=O)[O-])c1 (centres unmarked) [NIM, nimodipine]",IC50,[2]; [6],6 µM
O=C(NCCCCCCNC(=O)ON=C1CCCCC1)ON=C1CCCCC1 [RHC-80267],Anti-cancer,[1],+
same,NT Binding Assay,NTR1,+
"CC1=C(/C=C/C(C)=C/C=C/C(C)=C/C(=O)O)C(C)(C)CCC1 [Retinoic Acid, retinoic acid]",IC50,[2]; [3],7 µM
same,NT Binding Efficacy % increase,NTR1; LOX blockers,180 % increase
CCCCCC(O)c1cccc(OCc2ccc3ccccc3n2)c1 (centres unmarked) [Rev5901],IC50,[2]; [3],8 µM
same,EC50,NTR1; [5],19 µM
same,NT binding increased as much as / up to (fold),NTR1,≤ 2.4 fold
same,IC50,5-LOX,10 µM
Cn1cc(C2=C(c3ccc(Cl)cc3Cl)C(=O)NC2=O)c2ccccc21 [SB-216763],Anti-cancer,[1],+
same,NT Binding Assay,NTR1,+
Cc1cc(C)c(/C=C2\C(=O)Nc3ccccc32)[nH]1 [SU5416],Anti-cancer,[1],+
CC(=O)O[C@H]1C(=O)[C@@]2(C)[C@H]([C@H](OC(=O)c3ccccc3)[C@]3(O)C[C@H](OC(=O)[C@H](O)[C@@H](NC(=O)c4ccccc4)c4ccccc4)C(C)=C1C3(C)C)[C@]1(OC(C)=O)CO[C@@H]1C[C@@H]2O [Taxol],NT Binding Assay,NTR1,+

# From patent publication US7507547B2, “Screening assays for antioxidants and antiproliferative compounds” (University of Massachusetts, priority 2004, dated 2009)
